US20240190872A1, “FABI INHIBITORS FOR GRAM-NEGATIVE PATHOGENS” (THE BOARD OF TRUSTEES OF THE UNIVERSITY OF ILLINOIS, priority 2021, published 2024)
Converted amounts (≈) assume the structure as drawn.

Experiments:
E. coli MG1655 = experiment: Antimicrobial susceptibility test (MIC); type: cell-based; conditions: E. coli MG1655
Excerpt: (§1) Bacterial strains. S. aureus ATCC 29213, E. coli MG1655, E. coli BAA-2340, E. coli BAA-2469, E. coli BAA-2471, E. cloacae BAA-2341, E. cloacae BAA-2468, K. pneumoniae BAA-1705, K. pneumoniae BAA-2342, K. pneumoniae BAA-2470, K. pneumoniae BAA-2472, and K. pneumoniae BAA-2473 were obtained from ATCC. E. coli JW5503 and E. coli JW3596 were obtained from the KEIO Collection. E. cloacae ATCC 29893 was provided by W. van der Donk (UIUC). E. coli AR-0346, E. coli AR-0349, E. coli AR-0493, E. coli AR-0495, and K. pneumoniae AR-0347 were obtained from the CDC and FDA AR Isolate Bank. E. coli F20987, E. coli M66623, E. cloacae S28901.1, K. pneumoniae M14723, K. pneumoniae M67198, K. pneumoniae M67297, K. pneumoniae S20595, K. pneumoniae S47889, A. baumannii W41979, A. baumannii F19521, A. baumannii M13100, and A. baumannii WO22 were obtained from the University of Illinois Chicago Medical School. A. baumannii KB304, A. baumannii KB343, and A. baumannii KB357 were provided by J. Quale.
(§2) Antimicrobial susceptibility tests. Susceptibility testing was performed in biological triplicate, using the micro-dilution broth method as outlined by the Clinical and Laboratory Standards Institute. Bacteria were cultured with cation-adjusted Muller-Hinton broth (Sigma-Aldrich, Cat# 90922) in round-bottom 96-well plates (Corning, Cat# 3788). Human serum (pooled gender, 0.2 μm filtered) was purchased from BioIVT (Hicksville, NY).

S. aureus ATCC 29213 = experiment: Antimicrobial susceptibility test (MIC), micro-dilution broth; type: cell-based; conditions: S. aureus ATCC 29213
Excerpt: as §1, §2

K. pneumoniae BAA 2472 = experiment: microbe, parasite or virus in culture; type: cell-based; conditions: clinical isolate
Method: (§3) The compounds synthesized, shown in Table 1, were evaluated against Gram-positive and Gram-negative reference strains (S. aureus 29213 and E. coli MG1655, respectively), as well as an efflux deficient E. coli strain (ΔtolC, JW5503).
as §1, §2

E. coli ΔtolC (JW5503) = type: cell-based; conditions: efflux deficient E. coli ΔtolC
Method: as §3, §1, §2

K. pneumoniae AR 0560 = experiment: microbe, parasite or virus in culture; type: cell-based; conditions: clinical isolate
Method: as §2

A. baumannii AR 0299 = experiment: microbe, parasite or virus in culture; type: cell-based; conditions: clinical isolate
Method: as §2

A. baumannii AR 0273 = experiment: microbe, parasite or virus in culture; type: cell-based; conditions: clinical isolate
Method: as §2

E. coli AR 0048 = experiment: microbe, parasite or virus in culture; type: cell-based; conditions: clinical isolate
Method: as §2

K. pneumoniae AR 0066 = experiment: microbe, parasite or virus in culture; type: cell-based; conditions: clinical isolate
Method: as §2

A. baumannii AR 0033 = experiment: microbe, parasite or virus in culture; type: cell-based; conditions: clinical isolate
Method: as §2

K. pneumoniae AR 0113 = experiment: microbe, parasite or virus in culture; type: cell-based; conditions: clinical isolate
Method: as §2

A. baumannii AR 0313 = experiment: microbe, parasite or virus in culture; type: cell-based; conditions: clinical isolate
Method: as §2

E. coli AR 0085 = experiment: microbe, parasite or virus in culture; type: cell-based; conditions: clinical isolate
Method: as §2

Hep G2 = experiment: Toxicity screen against mammalian cell lines (72 h); type: cell-based
IMR90 = experiment: Toxicity screen against mammalian cell lines (72 h), Alamar Blue; type: cell-based
Method: Cell culture. IMR90 cells were obtained from ATCC. IMR90 cells were grown in EMEM with 10% fetal bovine serum (Gemini Benchmark, Cat# 100-106), 100 U/mL penicillin, and 100 μg/mL streptomycin. All cells were cultured at 37° C. in a 5% CO2 environment. Media was prepared by the Univeristy of Illinois School of Chemical Sciences Cell Media Facility. Sex and age of cell lines: IMR90 ([…]).
Cell viability. Cells seeded (IMR90: 5,000 cells/well) a 96-well plate (Greiner Bio-One, Cat# 655180) and were allowed to attach overnight. […] Raptinal (100 μM) was used as a dead control. After 24 h post-treatment, media was exchanged with compound-free media. […] Stock Alamar Blue solution [10 μL, 440 μM resazurin (Sigma-Aldrich, Cat# R7017) in sterile 1×PBS] was added to each well, and plate was incubated […]. Conversion of Alamar Blue was measured with plate reader (SpectraMax M3, Molecular Devices) by fluorescence (ex 555 nm, em 585 nm, cutoff 570 nm, autogain). Percent death was determined by normalizing to DMSO-treated cells and raptinal-treated cells.

A. baumannii FabI = A. baumannii FabI (Acinetobacter baumannii, UniProt D0CAD5); experiment: biochemical; conditions: purified FabI, apparent inhibition constant; read-out: A. baumannii FabI Ki^app
A. baumannii FabI, sequence (D0CAD5 1-288): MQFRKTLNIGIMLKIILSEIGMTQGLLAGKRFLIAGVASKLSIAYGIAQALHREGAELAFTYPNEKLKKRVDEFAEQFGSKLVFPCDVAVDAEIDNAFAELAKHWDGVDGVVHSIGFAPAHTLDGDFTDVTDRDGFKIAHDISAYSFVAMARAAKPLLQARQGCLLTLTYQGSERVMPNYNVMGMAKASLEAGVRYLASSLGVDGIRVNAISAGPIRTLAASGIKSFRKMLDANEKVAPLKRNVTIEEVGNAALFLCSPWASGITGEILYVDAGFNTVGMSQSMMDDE
Method: Mode of Action. To probe the effects of varying ring systems and amine placement on FabI target engagement, the apparent inhibition constants (Ki^app) for select compounds were determined using purified FabI. The goal of these studies was two-fold, to comparatively assess fabimycin, Debio-1452-NH3, and Debio-1452, and to also assess differential activity against the E. coli and A. baumannii versions of FabI. FabI from E. coli and A. baumannii were recombinantly expressed and purified, and the ability for each compound to inhibit the activity of these enzymes was evaluated using a standard FabI enzyme assay.
In vitro FabI inhibition assay. NADH (Sigma-Aldrich, Cat# N8129) and crotonoyl-CoA (Sigma-Aldrich, Cat# 28007) were both diluted into activity buffer [100 mM potassium glutamate (pH 7.8)], and working solution was dispensed into two columns of round-bottom 96-well plate (330 μL per well). Inhibitors, dissolved in DMSO at 200× final concentration, were added to each well via multichannel pipette (2.48 μL per well). After thorough mixing, this mixture was transferred to UV-transparent plate (UV-STAR half-area 96-well plate, Greiner Bio-One, Cat#675801, 100 μL per well, three technical replicates per inhibitor concentration). Plate was placed in plate-reader (SpectraMax 190, Molecular Devices) under temperature control (25° C.), and temperature was allowed to equilibrate. Fresh aliquot of enzyme from −80° C. was thawed on ice and diluted in activity buffer. Enzyme working solution was added to plate (50 μL per well, 20 nM enzyme final). After shaking for 5 s, reaction progress was monitored by absorbance at 340 nm every 15 s for 90 min. Linear portion of reaction progress curve was fit using plate-reader software (SoftMax Pro 7.0). Percent activity was calculated relative to DMSO-only and no-enzyme controls in each plate. Percent activity curves were fit to Morrison's quadratic using Graphpad Prism 6.0 to obtain apparent Ki.

in vivo = conditions: female, C57BL/6, mouse, in vivo, ip
Method: Mouse MTD of Debio-1452-NH3. The protocol was approved by the IACUC at the University of Illinois at Urbana-Champaign (Protocol Number:16144). In these studies, 10- to 12-week-old female C57BL/6 mice purchased from Charles River were used. The maximum tolerate dose (MTD) of single compound was determined first. Debio-1452 amine analogues were formulated in 20% sulfobutyl ether β-cyclodextrin in sterile water. Debio-1452-NH3 (1), and compounds 2 and 3 were given by IP injection and mice were monitored for signs of toxicity for 2 weeks (single dose). For multiple dose, the compound was given by daily IP for 5 consecutive days and mice were monitored for signs of toxicity for 1 month. MTD was the highest dosage with acceptable toxicity (e.g. <20% weight loss). Single dose MTDs were initially determined. […] The MTD of Debio-1452-NH3 (1) was used to inform the dosing schedule used in subsequent efficacy studies.

Row | Compound | MIC E. coli MG1655 (E. coli MG1655) [µg/mL] | MIC S. aureus 29213 (S. aureus ATCC 29213) [µg/mL] | MIC K. pneumoniae BAA 2472 (K. pneumoniae BAA 2472) [µg/mL] | MIC E. coli ΔtolC (E. coli ΔtolC (JW5503)) [µg/mL] | MIC K. pneumoniae AR 0560 (K. pneumoniae AR 0560) [µg/mL] | MIC A. baumannii AR 0299 (A. baumannii AR 0299) [µg/mL] | MIC A. baumannii AR 0273 (A. baumannii AR 0273) [µg/mL] | MIC E. coli AR 0048 (E. coli AR 0048) [µg/mL] | MIC K. pneumoniae AR 0066 (K. pneumoniae AR 0066) [µg/mL] | MIC A. baumannii AR 0033 (A. baumannii AR 0033) [µg/mL] | MIC K. pneumoniae AR 0113 (K. pneumoniae AR 0113) [µg/mL] | MIC A. baumannii AR 0313 (A. baumannii AR 0313) [µg/mL] | MIC E. coli AR 0085 (E. coli AR 0085) [µg/mL] | Hep G2 % Cell Death (Hep G2; 30 μM) [%] | Hep G2 % Cell Death (Hep G2; 100 μM) [%] | IMR90 % Cell Death (IMR90; 30 μM) [%] | IMR90 % Cell Death (IMR90; 100 μM) [%] | Ki (A. baumannii FabI) [nM] | MTD at 2 weeks (in vivo) [mg/kg]
1 | Cc1c(CN(C)C(=O)/C=C/c2cnc3c(c2)CC2(CNC2)C(=O)N3)oc2ccccc12 [Compound 5] | 4 (≈ 9.6 µM) | 0.016 (≈ 0.0384 µM) | 8 (≈ 19.2 µM) | 0.031 (≈ 0.0744 µM) | 16 (≈ 38.4 µM) | 16 (≈ 38.4 µM) | 8 (≈ 19.2 µM) | 8 (≈ 19.2 µM) | 8 (≈ 19.2 µM) | 8 (≈ 19.2 µM) | 16 (≈ 38.4 µM) | 16 (≈ 38.4 µM) | 4 (≈ 9.6 µM) |  |  |  |  |  | 
2 | Cc1c(CN(C)C(=O)/C=C/c2ccc3c(c2)CCC(N)C(=O)N3)oc2ccccc12 (centres unmarked) |  |  |  |  |  |  |  |  |  |  |  |  |  | 12 ± 5 | 58 ± 10 | 8 ± 3 | 67 ± 2 |  | 
3 | (R,E)-3-(7-amino-8-oxo-6,7,8,9-tetrahydro-5H-pyrido[2,3]azepin-3-yl)-N-methyl-N-((3-methylbenzofuran-2-yl)methyl)acrylamide [(R)-11] | 64 | 0.125 | >128 | 0.5 | >128 | >128 | >128 | 128 | >128 | >128 | >128 | >128 | 128 |  |  |  |  | 89 ± 11 | 
4 | Cc1c(CN(C)C(=O)/C=C/c2cnc3c(c2)CC(CCNC(=O)OC(C)(C)C)C(=O)N3)oc2ccccc12 (centres unmarked) [Compound 10] | 8 (≈ 15.4 µM) | 0.002 (≈ 0.00386 µM) | 16 (≈ 30.9 µM) | 0.031 (≈ 0.0598 µM) | >32 | 8 (≈ 15.4 µM) | 8 (≈ 15.4 µM) | 8 (≈ 15.4 µM) | 32 (≈ 61.7 µM) | 16 (≈ 30.9 µM) | 32 (≈ 61.7 µM) | 16 (≈ 30.9 µM) | 8 (≈ 15.4 µM) |  |  |  |  |  | 
5 | Cc1c(CN(C)C(=O)C=Cc2cnc3c(c2)CC2(CC(N)C2)C(=O)N3)oc2ccccc12 (mixture of isomers) [(±)-6] | 4 | 0.016 | 8 | 0.062 | 8 | 16 | 16 | 16 | 8 | 16 | 16 | 32 | 16 |  |  |  |  |  | 
6 | Cc1c(CN(C)C(=O)/C=C/c2cnc3c(c2)CC(CCN)C(=O)N3)oc2ccccc12.Cl (centres unmarked) [Compound 3, (E)-3-(6-(aminoethyl)-7-oxo-5,6,7,8-tetrahydro-1,8-naphthyridin-3-yl)-N-methyl-N-((3-methylbenzofuran-2-yl)methyl)acrylamide hydrochloride] |  |  |  |  |  |  |  |  |  |  |  |  |  |  |  |  |  |  | 100
7 | Cc1c(CN(C)C(=O)/C=C/c2cnc3c(c2)CCC(CN)C(=O)N3)oc2ccccc12 (racemic) [(±)-12] | 8 (≈ 19.1 µM) | 0.031 (≈ 0.0741 µM) | 32 (≈ 76.5 µM) | 0.125 (≈ 0.299 µM) | 16 (≈ 38.2 µM) | 32 (≈ 76.5 µM) | 32 (≈ 76.5 µM) | 16 (≈ 38.2 µM) | 32 (≈ 76.5 µM) | 16 (≈ 38.2 µM) | 32 (≈ 76.5 µM) | >32 | 8 (≈ 19.1 µM) |  |  |  |  |  | 
